This is an account of results in patent US8217042B2, “Pyridopyrazines and their use as modulators of kinases” (Zentaris GmbH, priority 2005, dated 2012).

One assay concerns Jnk1 + Jnk2. The experiment in a line: Cell-free kinase assay (ALPHA technology), Jnk1 + Jnk2. Format: biochemical. The conditions noted are these: at 10 μM or 100 μM* ATP, recombinant human kinases.
The target of another assay is T1, Erk2.
T1 construct: in some cases as full-length kinases, in some cases as truncated fragments; purchased Upstate 14-173
The experiment in a line: Cell-free kinase assay (ALPHA technology), Erk2-ALPHA. In kind it is biochemical. The settings on record: 10 μM ATP, recombinant human kinase. Put shortly: (§1)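 Recombinant GST- or His-tagged kinases (full-length or kinase-domain fragments); ALPHA bead detection read after overnight incubation. PI3Kalpha: 1 ng enzyme, 100 μM ATP, 20 μM PIP2, 1 h, pH 7.4 Hepes buffer, GST:Grp1 with biotinylated PIP3 detection; Erk2 read via anti-phospho-MBP. % inhibition versus no-ATP/no-substrate and no-compound controls, giving IC50.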

The next assay concerns the target T2, PI3Kalpha (Homo sapiens, UniProt P42336).
T2 construct: in some cases as full-length kinases, in some cases as truncated fragments; purchased Upstate 14-602
The experiment in a line: Cell-free kinase assay (ALPHA technology), PI3K-ALPHA. In kind it is biochemical. The settings on record: 100 μM ATP, recombinant human kinase. An outline of the steps: as §1

In the next assay the test system is PI3K →pAkt. The experiment in a line: Cellular substrate phosphorylation (Western blotting), PI3K substrate Akt. In kind it is cell-based. The settings on record: 5 h, tumour cell line. As to the method: This method enables a statement of whether the kinase modulator investigated achieves the desired effect in a cellular context too, i.e., in this case, a substrate protein downstream of the target kinase is examined for its phosphorylation status. To this end, the cells incubated with substance are lysed and the overall protein is separated on a reducing polyacrylamide gel. Subsequently, the proteins are transferred by means of Western blotting to a PVDF membrane and the substrate bands sought are made visible with specific antibodies and a suitable detection method. The substrate proteins downstream of the target kinases are detected simultaneously with an anti-phospho antibody which is specific in each case and simultaneously a total antibody which recognizes the substrate total protein. The duplex technology of the ODYSSEY imager (LiCOR) enables this simultaneous measurement. The intensity of the total substrate bands is employed to normalize and quantify the phosphorylation inhibition or activation.
Suitable tumour cell lines (e.g. BxPC3, Hct116 or MDA MB468) were seeded into 6-well microtitre plates in a defined cell count (e.g. 350 000 cells/well for BxPC3 and Hct116) in the particular standard complete media and then incubated overnight in an incubator at 37° C., 5% CO2 and 95% air humidity. The cells were then incubated further for a further 24 h under reduced-serum conditions, i.e. in the particular medium except at only 0.25% serum. The test substances were made up as stock solutions (10 mM) in DMSO and incubated with the cells at final concentrations of 5, 15.8 and 50 μM for 5 h. This was followed by cell lysis in 25 mM Tris, 150 mM NaCl, 10 mM sodium pyrophosphate, 2 mM EGTA, 25 mM beta-glycerophosphate, 25 mM NaF, 10% glycerol, 0.75% NP-40, 100 μM NaVO4 buffer. After protein quantification by means of BCA (bicinchonic acid protein assay kit, Sigma) assay, amounts of protein of about 20 μg per track were separated on a Lammli polyacrylamide gel and then transferred onto a PVDF membrane (Millipore) by means of semi-dry Western blotting at 0.8 mA/cm^2 for 1 h. This was followed by prehybridization of the membrane for 1 hour in I-block reagent (Applied Biosystems) and overnight incubation with the specific antibodies. To determine the Erk and PI3K inhibition, the next substrates Rsk1 downstream were detected with the total antibody (Rsk #sc-231g C-21, Santa Cruz) and the phospho antibody (Phospho-p90RSK (S380) #9341, NEB Cell Signalling) and Akt with the total antibody (Akt1 #sc-20, Santa Cruz) and the phospho antibody (Phospho-Akt (Ser 473) #9271, NEB Cell Signaling). After the membrane had been washed, the secondary antibodies were incubated with anti-rabbit IR Dye 800 (#611-732-127, Rockland) for the phospho antibody and anti-goat Alexa Fluor 680 (#A-21081, […]) for the total protein antibody. After incubation for 30 min at room temperature in the dark, the hybridization of the detection antibody was detected on the membrane by scanning in an ODYSSEY imager (LiCOR).
For orientation: Immunoblotting shows a protein as a band on a membrane.

T2 sequence (P42336 whole entry, the tested form may be a part): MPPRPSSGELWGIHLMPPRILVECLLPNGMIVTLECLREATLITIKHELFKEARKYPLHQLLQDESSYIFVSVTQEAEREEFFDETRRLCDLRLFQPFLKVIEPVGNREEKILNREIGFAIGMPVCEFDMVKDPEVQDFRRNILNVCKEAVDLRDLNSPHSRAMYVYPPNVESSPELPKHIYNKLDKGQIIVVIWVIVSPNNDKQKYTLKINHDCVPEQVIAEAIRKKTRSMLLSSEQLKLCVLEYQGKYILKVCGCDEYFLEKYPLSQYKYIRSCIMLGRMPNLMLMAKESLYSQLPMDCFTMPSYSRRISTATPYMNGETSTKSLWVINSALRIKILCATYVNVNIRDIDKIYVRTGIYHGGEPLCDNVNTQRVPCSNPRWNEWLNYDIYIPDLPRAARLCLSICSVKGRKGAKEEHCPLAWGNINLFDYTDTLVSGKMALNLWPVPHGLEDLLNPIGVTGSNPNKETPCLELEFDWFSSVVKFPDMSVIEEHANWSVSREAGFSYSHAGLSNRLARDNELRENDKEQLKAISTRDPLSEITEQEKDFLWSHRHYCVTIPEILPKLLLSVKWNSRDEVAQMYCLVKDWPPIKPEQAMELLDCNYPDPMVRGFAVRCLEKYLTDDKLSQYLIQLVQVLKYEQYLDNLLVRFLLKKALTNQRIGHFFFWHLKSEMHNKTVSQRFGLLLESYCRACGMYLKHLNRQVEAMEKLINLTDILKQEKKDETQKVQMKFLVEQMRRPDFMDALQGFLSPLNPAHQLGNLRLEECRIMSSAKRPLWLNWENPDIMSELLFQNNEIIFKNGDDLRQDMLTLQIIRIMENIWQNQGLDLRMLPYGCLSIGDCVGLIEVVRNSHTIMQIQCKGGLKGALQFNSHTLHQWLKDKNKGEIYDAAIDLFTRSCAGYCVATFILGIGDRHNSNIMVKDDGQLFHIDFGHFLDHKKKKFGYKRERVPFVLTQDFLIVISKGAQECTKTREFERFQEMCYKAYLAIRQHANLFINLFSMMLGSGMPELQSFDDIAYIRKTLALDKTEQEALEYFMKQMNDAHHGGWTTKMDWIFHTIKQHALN
T2 sequence (P27986 whole entry partner, the tested form may be a part): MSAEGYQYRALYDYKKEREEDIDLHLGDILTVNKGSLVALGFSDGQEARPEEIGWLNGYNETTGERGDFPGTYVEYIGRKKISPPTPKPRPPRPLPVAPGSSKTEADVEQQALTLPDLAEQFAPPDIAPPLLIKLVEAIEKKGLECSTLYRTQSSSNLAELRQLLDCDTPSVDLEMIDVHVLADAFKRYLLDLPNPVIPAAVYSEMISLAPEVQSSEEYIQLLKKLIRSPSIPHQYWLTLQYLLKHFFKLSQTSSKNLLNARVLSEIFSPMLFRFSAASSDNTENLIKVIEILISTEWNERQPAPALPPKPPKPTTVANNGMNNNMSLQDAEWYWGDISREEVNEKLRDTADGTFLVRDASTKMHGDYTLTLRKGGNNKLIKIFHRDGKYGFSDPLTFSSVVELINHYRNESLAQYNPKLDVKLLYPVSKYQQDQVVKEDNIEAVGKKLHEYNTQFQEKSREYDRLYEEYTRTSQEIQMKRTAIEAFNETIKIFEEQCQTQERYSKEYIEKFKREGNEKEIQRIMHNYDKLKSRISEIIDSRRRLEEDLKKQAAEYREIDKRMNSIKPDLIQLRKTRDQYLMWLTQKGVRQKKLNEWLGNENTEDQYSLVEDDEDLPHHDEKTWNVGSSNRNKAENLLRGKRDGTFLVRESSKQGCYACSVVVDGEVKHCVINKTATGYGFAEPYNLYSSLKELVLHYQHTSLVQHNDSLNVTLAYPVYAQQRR
T1 sequence (P63085 whole entry, the tested form may be a part): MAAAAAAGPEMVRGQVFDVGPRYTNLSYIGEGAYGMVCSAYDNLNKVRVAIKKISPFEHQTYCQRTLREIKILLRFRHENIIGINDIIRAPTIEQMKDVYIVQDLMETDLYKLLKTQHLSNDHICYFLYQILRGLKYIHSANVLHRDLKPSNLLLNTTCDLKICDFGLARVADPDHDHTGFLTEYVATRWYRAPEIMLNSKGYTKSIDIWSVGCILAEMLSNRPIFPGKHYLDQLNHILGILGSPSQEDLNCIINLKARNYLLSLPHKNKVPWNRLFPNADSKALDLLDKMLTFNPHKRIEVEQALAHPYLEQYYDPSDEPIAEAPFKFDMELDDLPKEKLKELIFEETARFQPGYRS

`CCNC(=O)Nc1ccc2ncc(Nc3ccc(C)c(NS(C)(=O)=O)c3)nc2n1` [Compound 49, N-{5-[6-(3-Ethylurea)pyrido[2,3-b]pyrazin-3-ylamino]-2-methylphenyl}methanesulphonamide]: the IC50 – broadly, the concentration that inhibits the measured activity by half – was more than 31.6 µM in the assay on Jnk1 + Jnk2, 9.6 µM on Erk2 and 1.9 µM on PI3Kalpha. Moreover, in the assay on PI3K →pAkt, the inhibition (as a rule, the share of the control response that was lost under treatment) at 50 µM came out at 90%.
